Test results from patent US8802634B2, “CD40-L Inhibitory Peptides” (Phylogica Limited, priority 2008, dated 2014).
pEC50, pIC50: −log10 of the molar value. Like-named read-outs stand apart in the source and are kept apart here. Each block holds one compound with its values, some of them ahead of it. Where a SMILES comes first, the peptide text is derived from it. Bridges are numbered along the chain shown (N, C = ends). Roman numbers before positions name the chains, in order. Where no end group is shown, it is not given here. [ ]: non-standard residue; d: D form. AEEA = NCCOCCOCC(=O)O

Legend:
[1] = biological target: CD40L-induced CD86 expression on primary B-cells (Homo sapiens, UniProt P29965); assay: Inhibition of CD40L-induced CD86 expression on primary B-cells (FACS); format: cell-based; settings: for pEC50: PEGylated monomeric peptide, read-out: EC50 PEGylated peptide; for inhibition of CD40L-induced CD86 expression (qualitative): figure legends
CD40L-induced CD86 expression on primary B-cells, sequence (P29965 whole entry): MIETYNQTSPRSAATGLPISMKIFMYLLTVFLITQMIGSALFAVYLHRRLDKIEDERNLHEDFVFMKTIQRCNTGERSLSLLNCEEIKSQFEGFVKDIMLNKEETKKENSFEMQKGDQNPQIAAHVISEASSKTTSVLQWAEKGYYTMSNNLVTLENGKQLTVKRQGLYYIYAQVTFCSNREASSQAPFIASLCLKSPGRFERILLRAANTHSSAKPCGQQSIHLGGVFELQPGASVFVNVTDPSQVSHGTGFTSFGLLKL
CD40L-induced CD86 expression on primary B-cells, sequence (P25942 21-277 partner): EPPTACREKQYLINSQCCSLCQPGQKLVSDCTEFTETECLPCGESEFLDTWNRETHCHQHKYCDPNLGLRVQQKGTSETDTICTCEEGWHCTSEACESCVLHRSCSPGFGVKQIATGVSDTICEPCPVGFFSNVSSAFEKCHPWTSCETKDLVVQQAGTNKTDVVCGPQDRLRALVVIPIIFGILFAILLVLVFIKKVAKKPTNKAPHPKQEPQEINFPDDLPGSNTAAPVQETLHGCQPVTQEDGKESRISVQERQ
Procedure: In one example, the ability of a peptide, analog or derivative of the invention to inhibit or reduce or delay expression of CD86 on primary B-cells was determined in the presence and absence of the peptides, analogs and derivatives of the invention. In particular, CD86 expression was determined by FACS.
In these assays, CD40L induced CD86 expression in a concentration-dependent manner in the absence of a peptidyl inhibitor of the present invention with an EC50 value of about 9 nM (FIG. 6d, 6e). As a control in these assays, LPS-induced expression of CD86 mediated by the Toll-like receptors TLR 2/4, and TNFα-induced cytoxicity, were also assayed to exclude effects mediated by ligands other than CD40L.
In a similar series of bioassays, dimeric forms of the CD40L peptide inhibitors were also tested for their ability to inhibit or reduce CD40L-induced expression of CD86 on primary B-cells.

CD40L/CD40-Fc = biological target: T1, CD40L/CD40-Fc (Homo sapiens, UniProt P29965); assay: Chemiluminescent proximity assay (Alphascreen) of CD40L-CD40 interaction; format: binding
T1 sequence (P29965 113-261 limits assumed): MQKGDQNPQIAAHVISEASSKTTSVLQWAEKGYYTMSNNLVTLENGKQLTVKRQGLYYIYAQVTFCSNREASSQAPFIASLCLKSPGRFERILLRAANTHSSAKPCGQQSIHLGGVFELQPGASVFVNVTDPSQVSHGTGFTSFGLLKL
Procedure: In one example, the Alphascreen assay (PerkinElmer) was employed according to the manufacturer's instructions.
Homodimers and heterodimers were also assayed by chemiluminescent proximity assay for their ability to inhibit CD40L-CD40 interaction.

Compound: I: H-C[AEEA]PPRYNLFFLFRFYSSFRRDYLYF / II: H-C[AEEA]HPFSIKNVFSIWNFFSVY (disulfide I:1-II:1) [Cys_M1_6S-Cys_M1_9S heterodimer]
inhibition of CD40L-CD40 interaction relative to monomeric peptide controls (CD40L/CD40-Fc; qualitative): enhanced inhibition
inhibition of CD40L-induced CD86 expression (qualitative) [1]: enhanced inhibition

Compound: CC[C@H](C)[C@H](NC(=O)[C@@H](NC(=O)[C@H](CCCCN)NC(=O)[C@@H](NC(=O)[C@H](Cc1ccc(O)cc1)NC(=O)[C@H](CC(C)C)NC(=O)[C@@H](N)CC(C)C)C(C)C)C(C)C)C(=O)N[C@@H](CS)C(=O)N[C@@H](Cc1ccccc1)C(=O)N[C@@H](Cc1ccccc1)C(=O)N[C@@H](CS)C(=O)N[C@@H](CCSC)C(=O)N[C@@H](CC(C)C)C(=O)N[C@H](C(=O)N[C@@H](CCC(N)=O)C(=O)N[C@@H](Cc1ccc(O)cc1)C(=O)N[C@@H](CC(N)=O)C(=O)N[C@@H](CC(N)=O)C(=O)N[C@@H](Cc1ccccc1)C(=O)N[C@@H](CCC(N)=O)C(=O)N[C@H](C(=O)N[C@@H](Cc1ccc(O)cc1)C(=O)N[C@@H](CCCCN)C(=O)O)[C@@H](C)O)C(C)C [CD40L M2_159] (H-LLYVKVICFFCMLVQYNNFQTYK-OH; N-terminus and C-terminus assumed)
pEC50 (CD40L/CD40-Fc; unmodified (non-PEGylated) monomeric base peptide; read-out: EC50nmodified) CD40L/CD40-Fc/BAF617): 6.92

Compound: CC[C@H](C)[C@H](NC(=O)[C@H](CC(C)C)NC(=O)[C@H](CCC(N)=O)NC(=O)[C@H](Cc1ccccc1)NC(=O)[C@H](Cc1ccc(O)cc1)NC(=O)[C@H](Cc1ccc(O)cc1)NC(=O)[C@H](CCCCN)NC(=O)[C@H](Cc1ccccc1)NC(=O)[C@H](CCCNC(=N)N)NC(=O)[C@H](CO)NC(=O)[C@H](Cc1ccc(O)cc1)NC(=O)[C@H](CCCNC(=N)N)NC(=O)[C@H](Cc1c[nH]c2ccccc12)NC(=O)[C@H](Cc1c[nH]cn1)NC(=O)[C@H](Cc1ccc(O)cc1)NC(=O)[C@H](CCC(N)=O)NC(=O)[C@@H](NC(=O)[C@@H](N)CO)[C@@H](C)CC)C(=O)N[C@@H](Cc1c[nH]c2ccccc12)C(=O)N[C@H](C(=O)N[C@@H](Cc1ccc(O)cc1)C(=O)N[C@@H](Cc1ccc(O)cc1)C(=O)N[C@@H](CO)C(=O)N[C@@H](Cc1c[nH]cn1)C(=O)N[C@H](C(=O)O)C(C)C)C(C)C [CD40L M1_82s] (H-SIQYHWRYSRFKYYFQLIWVYYSHV-OH; N-terminus and C-terminus assumed)
pEC50 (CD40L/CD40-Fc; PEGylated Cys-Ser derivative, read-out: EC50(PEGylated) CD40L/CD40-Fc/BAF617): 6.92

Now from value to compound:

pEC50 [1]: < 5.70
Compound: CC[C@H](C)[C@H](NC(=O)[C@H](CCC(N)=O)NC(=O)[C@H](Cc1ccccc1)NC(=O)[C@H](Cc1ccccc1)NC(=O)[C@H](CCC(=O)O)NC(=O)[C@H](CCCNC(=N)N)NC(=O)CNC(=O)[C@H](C)NC(=O)[C@H](C)NC(=O)[C@@H](N)CC(=O)O)C(=O)N[C@@H](C)C(=O)NCC(=O)N[C@@H](CC(C)C)C(=O)N[C@@H](Cc1ccccc1)C(=O)N[C@@H](CO)C(=O)N[C@@H](Cc1ccccc1)C(=O)N[C@@H](CCCNC(=N)N)C(=O)N[C@@H](Cc1c[nH]cn1)C(=O)N[C@@H](Cc1c[nH]cn1)C(=O)N[C@@H](Cc1c[nH]c2ccccc12)C(=O)N[C@@H](Cc1c[nH]c2ccccc12)C(=O)N[C@@H](CCC(N)=O)C(=O)N[C@@H](C)C(=O)O [CD40L M1_30s] (H-DAAGREFFQIAGLFSFRHHWWQA-OH; N-terminus and C-terminus assumed)

inhibition of CD40L-induced CD86 expression (qualitative) [1]: enhanced inhibition
Compound: CC[C@@H](C)[C@@H](NC(=O)[C@@H](Cc1ccccc1)NC(=O)[C@@H](C)NC(=O)[C@H](NC(=O)[C@@H](CC(C)C)NC(=O)[C@H]1CCCN1C(=O)[C@@H](Cc1ccccc1)NC(=O)[C@@H](CCC(N)=O)NC(=O)[C@@H](Cc1ccc(O)cc1)NC(=O)[C@@H](CC(C)C)NC(=O)[C@@H](Cc1c[nH]cn1)NC(=O)[C@@H](CCCNC(=N)N)NC(=O)[C@@H](CS)NC(=O)[C@H](N)CCCNC(=N)N)C(C)C)C(=O)N[C@H](CO)C(=O)N[C@H](Cc1c[nH]c2ccccc12)C(=O)N[C@H](CCC(N)=O)C(=O)N[C@@H](C(=O)N1CCC[C@@H]1C(=O)N[C@H](Cc1ccccc1)C(=O)N[C@H](Cc1ccccc1)C(=O)N[C@H](Cc1c[nH]c2ccccc12)C(=O)NCC(=O)N[C@H](Cc1ccc(O)cc1)C(=O)N[C@H](CCCCN)C(=O)N[C@H](CC(C)C)C(=O)N[C@@H](C(=O)N[C@H](Cc1c[nH]cn1)C(=O)N[C@H](CO)C(=O)N[C@H](CCCNC(=N)N)C(=O)N[C@H](Cc1ccc(O)cc1)C(=O)N1CCC[C@@H]1C(=O)N[C@@H](C(=O)N[C@H](Cc1ccccc1)C(=O)N1CCC[C@@H]1C(=O)N[C@H](CC(C)C)C(=O)O)C(C)C)C(C)C)C(C)C [CD40L M1_18rd] (H-[dR][dC][dR][dH][dL][dY][dQ][dF][dP][dL][dV][dA][dF][dI][dS][dW][dQ][dV][dP][dF][dF][dW]G[dY][dK][dL][dV][dH][dS][dR][dY][dP][dV][dF][dP][dL]-OH; N-terminus and C-terminus assumed)

pEC50 [1]: 7.52
Compound: CC[C@H](C)[C@H](NC(=O)CNC(=O)CNC(=O)[C@H](CCCNC(=N)N)NC(=O)[C@H](CCC(N)=O)NC(=O)[C@@H](NC(=O)CNC(=O)[C@H](CO)NC(=O)[C@@H]1CCCN1C(=O)[C@@H](NC(=O)[C@H](Cc1ccccc1)NC(=O)[C@H](CC(C)C)NC(=O)[C@H](CO)NC(=O)[C@H](Cc1ccc(O)cc1)NC(=O)[C@H](Cc1ccccc1)NC(=O)[C@H](CCCNC(=N)N)NC(=O)[C@H](CC(N)=O)NC(=O)[C@H](CCCNC(=N)N)NC(=O)[C@@H](NC(=O)[C@H](Cc1c[nH]c2ccccc12)NC(=O)[C@H](CCCNC(=N)N)NC(=O)[C@@H]1CCCN1)C(C)C)C(C)C)C(C)C)C(=O)N[C@@H](Cc1c[nH]cn1)C(=O)N[C@@H](CC(C)C)C(=O)N[C@@H](Cc1c[nH]c2ccccc12)C(=O)N[C@@H](Cc1ccccc1)C(=O)N[C@@H](CO)C(=O)N[C@@H](CC(N)=O)C(=O)N[C@@H](Cc1c[nH]c2ccccc12)C(=O)N[C@H](C(=O)N[C@@H](CCCNC(=N)N)C(=O)O)C(C)C [CD40L M1_50s] (H-PRWVRNRFYSLFVPSGVQRGGIHLWFSNWVR-OH; N-terminus and C-terminus assumed)

inhibition of CD40L-induced CD86 expression (qualitative) [1]: concentration-dependent inhibition
pIC50 ([1]; monomeric peptide, concentration-dependent): > 6.30
Compound: CC[C@H](C)[C@H](NC(=O)[C@H](CO)NC(=O)[C@H](Cc1c[nH]c2ccccc12)NC(=O)[C@H](CCC(N)=O)NC(=O)[C@@H](NC(=O)[C@@H]1CCCN1C(=O)[C@H](Cc1ccccc1)NC(=O)[C@H](Cc1ccccc1)NC(=O)[C@H](Cc1c[nH]c2ccccc12)NC(=O)CNC(=O)[C@H](Cc1ccc(O)cc1)NC(=O)[C@H](CCCCN)NC(=O)[C@H](CC(C)C)NC(=O)[C@@H](NC(=O)[C@H](Cc1c[nH]cn1)NC(=O)[C@H](CO)NC(=O)[C@H](CCCNC(=N)N)NC(=O)[C@H](Cc1ccc(O)cc1)NC(=O)[C@@H]1CCCN1C(=O)[C@@H](NC(=O)[C@H](Cc1ccccc1)NC(=O)[C@@H]1CCCN1C(=O)[C@@H](N)CC(C)C)C(C)C)C(C)C)C(C)C)C(=O)N[C@@H](Cc1ccccc1)C(=O)N[C@@H](C)C(=O)N[C@H](C(=O)N[C@@H](CC(C)C)C(=O)N1CCC[C@H]1C(=O)N[C@@H](Cc1ccccc1)C(=O)N[C@@H](CCC(N)=O)C(=O)N[C@@H](Cc1ccc(O)cc1)C(=O)N[C@@H](CC(C)C)C(=O)N[C@@H](Cc1c[nH]cn1)C(=O)N[C@@H](CCCNC(=N)N)C(=O)N[C@@H](CS)C(=O)N[C@@H](CCCNC(=N)N)C(=O)O)C(C)C [CD40L M1_18] (H-LPFVPYRSHVLKYGWFFPVQWSIFAVLPFQYLHRCR-OH; N-terminus and C-terminus assumed)
